Values after ≈ are worked out from the molar mass of the structure shown. Where a name gives a salt, the structure may show the parent alone.

Data set [1] deals with Herpes simplex type 1 and 2. In words: Herpes simplex virus tissue culture test (human amnion AV3-cells), cytopathogenic effect. The format is cell-based, Herpes simplex virus type 1 and 2. The following applies: for Herpes Simplex tissue culture OL50 (concentration for 50% survival): Table 1; for EC50: Human alphaherpesvirus 1, Table 1, read-out: Herpes Simplex tissue culture OL50 (concentration for 50% survival). How it is done:
(§1) The virus strains were obtained from the National Bacteriological Laboratory, Stockholm. Herpes simplex type 1 and 2 were passaged intracerebrally in mice. For mouse experiments male mice 2-3 weeks old were used. Intracerebral infection was carried out by introducing the syringe 3 mm above the eye to a depth of approximately 3 mm. 0.03 ml virus suspension was injected above one eye and the substance above the other. Control groups obtained on one hand injection with physiological saline and on the other hand virus suspension.
Tissue culture experiments took place with human amnion AV3-cells. The cells were grown in glass-tubes (12×100 mm) in Eagles medium containing Earles salt solution and 10% of calf-serum. Tubes with a full-grown homogenous layer of cells were infected with virus (0.15 ml) and the virus was allowed to adsorb to cells for 1 hour at 37° C. The tubes were treated with substance dissolved in medium 24 hours and 0 hour before infection. Medium containing test-substance was changed every second day throughout the experiment. In each test a series of concentrations of the test-substance was investigated simultaneously so that about 50% reduction in cytopatogenic effect could be established (ED50).

The nature of data set [2]: Acute toxicity (LD50) in mice. The format is in vivo. The following applies: for LD50: mouse, in vivo. How it is done: (§2) Experiments with mice have also been carried out. LD50 intraperitoneally is of the order 1000 mg/kg and about 100 mg/kg intravenously. […] were inocculated with 5 millions mouse ascites tumor cells intraperitoneally. 80 mg/kg of B219 were given daily for ten days. 2 mice died 22 days after treatment, 8 mice survived the whole test period (3 months). All controls were then dead. In two experiments with ascites lymphoma cells in mice a survival time of 50.9 days was obtained in the first experiment and 45.6 days in the second. The survival time for the controls , was 16.2 and 16.1 days respectively.

Another data set deals with herpes virus. The following applies: literature; cited from earlier work.
Data set [3] deals with herpes simplex virus type 1. Put plainly: Virus inactivation after incubation with B196, infectivity by intracerebral injection in mice (FIG. 5). The format is in vivo, herpes simplex virus type 1 in mice. The conditions noted are these: 75 and 150 μg/ml, 4° C. How it is done:
In the experiments shown in FIG. 5 two concentrations of B-196 (75 and 150 μg/ml) were incubated for different times at 4° C. with herpes simplex virus type 1 and the infectivity of the mixtures were determined by intracerebral injection in mice Control virus was incubated at 4° C. for the same period of time. No survivors were registered in these groups.

Data set [4] relates to herpes simplex virus type 1. Put plainly: Virus mixed with B196, with or without dialysis, injected intracerebrally into mice (FIG. 4). The format is in vivo, herpes simplex virus type 1 in mice. How it is done: as §1
In the experiments shown in FIG. 4 various concentrations of B-196 were mixed with herpes simplex virus type 1 and injected intracerebrally into mice immediately at or after dialysis, at 4° C. over night. No survivors were recorded in control groups.

Another data set concerns HeHrl-cells. In words: Growth/killing of Burkitt lymphoma HeHrl-cells (HeHr). The format is cell-based. The conditions noted are these: FIGS. 1 and 2. How it is done:
(§3) Burkitt lymphoma cells were obtained from professor Georg Klein, Karolinska Institutet. HeHrl-cells contain Epstein-Barr virus antigen on the surface of the cells while Raji cells contain the same antigen in the nucleus. The cells were grown in RPMI 1640 medium in the presence of 15% of fetal calf-serum, 2mM glutamine, 200 mg/1 penicillin and 200 mg/1 of streptomycine. L 1210 cells (mouse leukemia) were obtained from Dr. Miklos Degre, Rikshospitalet, Oslo. These cells were grown in RPMI 1640 medium with 10% horse serum.

Data set [5] deals with giant tumor cells (strain T4). In words: Growth inhibition of giant tumor cells (strain T4). The format is cell-based. The conditions noted are these: after 6 days test with 1 mg/1. How it is done:
(§4) Also osteogenic sarcoma cells and giant tumor cells (strain T4) were inhibited to 90% in their growth after 6 days test with 1 mg/1.

A further data set relates to osteogenic sarcoma cells. In words: Growth inhibition of osteogenic sarcoma cells. The format is cell-based. The following applies: after 6 days test with 1 mg/1. How it is done:
as §4

The subject of a further data set is Raji cells. Put plainly: Growth/killing of Burkitt lymphoma Raji-cells. The format is cell-based. The conditions noted are these: FIGS. 1 and 3. How it is done: as §3
Data set [6] relates to mouse ascites tumor cells. In words: Mouse ascites tumor survival experiment. The format is in vivo. The conditions noted are these: 80 mg/kg daily for ten days. How it is done: as §2
For the next data set, the system named is ascites lymphoma cells. In words: Ascites lymphoma survival experiments in mice. The format is in vivo. How it is done: as §2

`Cc1ccc2c(c1)c1nc3ccccc3nc1n2CCN(C)C` [Example 10, 9-methyl-6-(N,N-dimethylaminoethyl)-6H-indolo(2,3-b)-quinoxaline-ICl]: in data set [1], the “Herpes Simplex tissue culture OL50 (concentration for 50% survival)” value stood at 0.5 µg/mL. Besides, the LD50 mouse in data set [2] (Table 1) was 220 mg/kg.
Regarding `CN(C)CCn1c2ccc(Cl)cc2c2nc3ccccc3nc21.Cl` [Example 5, 9-chloro-6-(N,N-dimethylaminoethyl)-6H-indolo(2,3-b)-quinoxaline-HCl], the EC50 in data set [1] was determined as 1 mg/L. Besides, the LD50 mouse in [2] (Table 1, listed as 9) is on record as more than 250 mg/kg. The same compound showed a 50% lethal dose (LD50) in [2] (Table 1) of 180 mg/kg.
For the compound `O=C(O)CP(=O)(O)O` [phosphonoacetic acid], the “activity against herpes virus” value with herpes virus is “active against herpes virus”.
In the case of `Cc1ccc2c(c1)c1nc3ccccc3nc1n2CCN(C)C` [Example 4, 9-methyl-6-(N,N-dimethylaminoethyl)-6H-indolo(2,3-b)quinoxaline], the EC50 in [1] is 1 mg/L (≈ 3.29 µM). In [2] (Table 1), this compound had a median lethal dose (LD50) of more than 200 mg/kg.
On to `CN(C)CCn1c2ccc(Br)cc2c2nc3ccccc3nc21` [Example B196, 9-bromo-6(N,N-dimethylaminoethyl)-6H-indolo(2,3-b)-quinoxaline . HCl], for which, in [3], the “inactivation of HSV1-virus vs. time” value is recorded as “virus slowly is inactivated”. In addition, the survival rate in data set [4] (virus mixed with B196 before injection, increases from 0) stood at 100%. Further, the “effect on survival rate after dialysis” value in data set [4] (virus-substance mixture subjected to dialysis before injection) is listed as “almost equally pronounced”. Moreover, in the data set with HeHrl-cells, the “sensitivity / killing of HeHrl-cells” value is “rapidly killed”. The “inhibition of growth, giant tumor cells (strain T4)” value in data set [5] is given as 90%. Moreover, the “inhibition of growth, osteogenic sarcoma cells” value in the data set on osteogenic sarcoma cells turned out to be 90%. Also, in the data set with Raji cells, the “sensitivity / killing of Raji-cells” value is “rapidly killed”.
For the compound `Cc1cc2nc3c4cc(Br)ccc4n(CCN(C)C)c3nc2cc1C` [Example B219], the “mice died 22 days after treatment” value in data set [6] (5 millions ascites tumor cells intraperitoneally) is 2 mice. In data set [6] (3 months, all controls dead), the “mice survived the whole test period” value was 8 mice. Besides, in the data set on ascites lymphoma cells (first experiment, controls 16.2 days), the “survival time, first experiment” value worked out at 50.9 days. Also, the “survival time, second experiment” value in the data set with ascites lymphoma cells (second experiment, controls 16.1 days) is recorded as 45.6 days.
Consider `Cc1cc2nc3c4cc(Br)ccc4n(CCN(C)C)c3nc2cc1C` [Example 6, 2,3-dimethyl-9-bromo-6-(N,N-dimethylaminoethyl)-6H-indolo-(2,3-b)quinoxalin], for which, in [1], the EC50 was less than 0.5 mg/L. In data set [2] (Table 1), this compound returned an LD50 of more than 250 mg/kg.
For the compound `O=C(O)P(=O)(O)O` [phosphonoformic acid], in the data set on herpes virus, the “activity against herpes virus” value is “active against herpes virus”.
In the case of `Cc1ccc2c(c1)c1nc3ccccc3nc1n2CCN(C)C` [Example 8], the “Herpes Simplex tissue culture OL50 (concentration for 50% survival)” value in data set [1] turned out to be 1 µg/mL. In data set [2] (Table 1), this compound came in with an LD50 mouse of more than 200 mg/kg.

(Values after US4990510A, “Substituted indoloquinoxalines” (Leif Lundblad, priority 1986, dated 1991).)
